Experimental data as given in ChEMBL document CHEMBL1201862, “PubChem BioAssay data set” (2004).
One block for each molecule: values may come before it. Calls of active or inactive are those of the source.

Legend:
[1] = target: G-protein coupled receptor 55 (Homo sapiens, UniProt Q9Y2T6); assay: GPR55 antagonists blocking LPI-driven arrestin recruitment, primary screen, imaging, U2OS, beta-arrestin-GFP, LPI agonist (AID 2013); assay type: functional;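 note: antagonist potency measured as reduced agonist-driven arrestin aggregation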
[2] = target: Voltage-dependent T-type calcium channel subunit alpha-1H (Homo sapiens, UniProt O95180); assay type: functional;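 note: channel activity triggered by adding a high calcium stimulation buffer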
[3] = target: T1, Tyrosine-protein phosphatase non-receptor type 7 (Homo sapiens, UniProt P35236); assay: redox-dependent HePTP inhibition, mechanism study, biochemical, fluorescence (AID 2068); assay type: functional
T1 sequence (P35236 whole entry): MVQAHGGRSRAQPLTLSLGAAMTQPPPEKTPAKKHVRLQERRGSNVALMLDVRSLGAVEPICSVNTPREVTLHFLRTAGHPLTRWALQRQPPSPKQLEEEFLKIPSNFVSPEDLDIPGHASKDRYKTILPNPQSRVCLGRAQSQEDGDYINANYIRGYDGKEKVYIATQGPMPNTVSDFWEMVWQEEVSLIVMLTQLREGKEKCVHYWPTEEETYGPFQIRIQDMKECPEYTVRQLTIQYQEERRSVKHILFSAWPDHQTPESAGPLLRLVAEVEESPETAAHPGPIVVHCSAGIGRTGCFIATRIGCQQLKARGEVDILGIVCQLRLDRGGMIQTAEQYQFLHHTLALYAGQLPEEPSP

[4] = target: T2, Protein phosphatase methylesterase 1 (Homo sapiens, UniProt Q9Y570); assay: Late stage results from the probe development effort to identify inhibitors of the protein methylesterase PME-1: Gel-based Activity-Based Protein Profiling (ABPP) IC50: Purified enzyme.; assay type: functional
[5] = target: T2, Protein phosphatase methylesterase 1; assay: PME-1 inhibitor potency by in-gel ABPP, dose response, selectivity assay for PME-1 inhibitor project, cell lysate, mouse brain cytosol, FP-rhodamine, panel member PME-1 Assay Panel member description: Inhibition of endogenously expressed PME-1 (AID 2366)
[6] = target: Eukaryotic translation initiation factor 4H (Homo sapiens, UniProt Q15056); assay: eIF4H inhibition in translation initiation, SAR follow-up (AID 435011); assay type: functional
[7] = target: Polyadenylate-binding protein 1 (Homo sapiens, UniProt P11940); assay: PABP inhibition in translation initiation, SAR follow-up (AID 435018); assay type: functional
[8] = inhibition of K1F phage lysis, E. coli UTI89, bacterial capsule biogenesis inhibitors, alamar blue (AID 488966); assay type: functional
Integrin alpha-L = Integrin alpha-L (Mus musculus, UniProt P24063); assay: modulators of CD8 T cell-vesicle binding, dose response, powder samples, mouse 2C CD8+ cells (AID 504565); assay type: functional
T-cell = assay: inhibitors of CD8+ T cell–vesicle binding, dose response, mouse 2C CD8+ T cells, flow cytometry (AID 485284); assay type: functional

T2 sequence (Q9Y570 whole entry): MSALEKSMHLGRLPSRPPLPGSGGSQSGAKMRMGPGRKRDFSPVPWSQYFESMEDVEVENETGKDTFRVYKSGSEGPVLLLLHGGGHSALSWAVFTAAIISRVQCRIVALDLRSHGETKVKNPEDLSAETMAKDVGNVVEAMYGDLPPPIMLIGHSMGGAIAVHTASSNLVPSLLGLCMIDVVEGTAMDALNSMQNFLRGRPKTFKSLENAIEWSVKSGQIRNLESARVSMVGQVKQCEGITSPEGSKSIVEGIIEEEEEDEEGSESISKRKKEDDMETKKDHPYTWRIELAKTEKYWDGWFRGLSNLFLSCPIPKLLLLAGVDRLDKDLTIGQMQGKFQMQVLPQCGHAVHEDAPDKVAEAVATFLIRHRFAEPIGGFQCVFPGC
Chain of Integrin alpha-L (P24063 whole entry): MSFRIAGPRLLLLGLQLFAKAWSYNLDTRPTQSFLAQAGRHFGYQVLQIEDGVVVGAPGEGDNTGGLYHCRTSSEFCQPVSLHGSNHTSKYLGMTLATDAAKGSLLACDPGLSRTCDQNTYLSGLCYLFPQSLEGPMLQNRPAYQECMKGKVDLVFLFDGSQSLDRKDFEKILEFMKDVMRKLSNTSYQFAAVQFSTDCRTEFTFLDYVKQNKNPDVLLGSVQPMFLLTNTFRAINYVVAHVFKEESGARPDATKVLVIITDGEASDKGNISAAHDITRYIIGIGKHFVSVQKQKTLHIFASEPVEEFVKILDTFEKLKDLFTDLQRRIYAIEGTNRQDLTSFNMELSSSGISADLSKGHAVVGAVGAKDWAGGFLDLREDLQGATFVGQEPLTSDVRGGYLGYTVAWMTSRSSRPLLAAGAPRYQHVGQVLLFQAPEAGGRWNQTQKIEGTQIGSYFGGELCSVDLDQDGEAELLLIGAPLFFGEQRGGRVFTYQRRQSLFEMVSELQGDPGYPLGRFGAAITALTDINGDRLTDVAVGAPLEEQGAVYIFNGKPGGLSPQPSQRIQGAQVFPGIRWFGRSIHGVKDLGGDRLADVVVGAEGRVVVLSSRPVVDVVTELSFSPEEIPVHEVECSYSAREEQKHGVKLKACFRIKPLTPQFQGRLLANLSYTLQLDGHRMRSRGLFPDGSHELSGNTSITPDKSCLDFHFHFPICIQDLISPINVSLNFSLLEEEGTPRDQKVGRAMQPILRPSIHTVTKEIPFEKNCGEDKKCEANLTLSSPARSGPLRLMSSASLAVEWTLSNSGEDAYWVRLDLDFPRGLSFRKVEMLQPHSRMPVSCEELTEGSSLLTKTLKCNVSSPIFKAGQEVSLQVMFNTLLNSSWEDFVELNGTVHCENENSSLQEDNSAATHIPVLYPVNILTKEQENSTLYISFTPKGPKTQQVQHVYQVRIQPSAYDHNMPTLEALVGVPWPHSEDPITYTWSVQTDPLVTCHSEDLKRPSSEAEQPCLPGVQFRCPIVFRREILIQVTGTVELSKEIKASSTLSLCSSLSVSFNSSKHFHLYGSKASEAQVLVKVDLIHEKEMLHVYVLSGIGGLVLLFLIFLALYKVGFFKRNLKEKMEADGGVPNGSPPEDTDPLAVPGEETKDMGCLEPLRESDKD
Chain of Polyadenylate-binding protein 1 (P11940 whole entry): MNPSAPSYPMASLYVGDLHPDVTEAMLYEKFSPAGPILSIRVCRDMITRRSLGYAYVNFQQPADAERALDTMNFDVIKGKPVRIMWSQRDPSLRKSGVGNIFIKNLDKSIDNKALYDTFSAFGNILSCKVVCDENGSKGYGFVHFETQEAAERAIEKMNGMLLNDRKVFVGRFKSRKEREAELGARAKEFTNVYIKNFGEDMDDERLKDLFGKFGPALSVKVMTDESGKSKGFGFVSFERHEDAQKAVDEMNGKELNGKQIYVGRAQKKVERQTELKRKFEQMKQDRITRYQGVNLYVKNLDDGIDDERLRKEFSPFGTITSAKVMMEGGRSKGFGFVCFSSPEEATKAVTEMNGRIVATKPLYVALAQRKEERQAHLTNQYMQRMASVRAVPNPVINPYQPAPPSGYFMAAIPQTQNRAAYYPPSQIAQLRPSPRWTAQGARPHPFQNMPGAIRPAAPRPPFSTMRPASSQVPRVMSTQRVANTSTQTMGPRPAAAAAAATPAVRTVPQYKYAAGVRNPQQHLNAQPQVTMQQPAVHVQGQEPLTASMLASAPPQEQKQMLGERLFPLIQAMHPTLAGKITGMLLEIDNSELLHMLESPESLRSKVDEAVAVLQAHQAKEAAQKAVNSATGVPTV
Chain of G-protein coupled receptor 55 (Q9Y2T6 whole entry): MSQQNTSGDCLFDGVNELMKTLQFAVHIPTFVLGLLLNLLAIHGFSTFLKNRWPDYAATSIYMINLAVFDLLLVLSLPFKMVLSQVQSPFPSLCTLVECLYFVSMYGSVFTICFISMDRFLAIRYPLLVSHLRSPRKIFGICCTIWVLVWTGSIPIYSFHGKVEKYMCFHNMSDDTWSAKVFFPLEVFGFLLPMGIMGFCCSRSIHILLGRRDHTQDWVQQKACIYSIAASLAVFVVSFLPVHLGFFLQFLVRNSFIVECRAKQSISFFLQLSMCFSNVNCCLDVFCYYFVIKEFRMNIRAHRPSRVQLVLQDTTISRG
Chain of Voltage-dependent T-type calcium channel subunit alpha-1H (O95180 whole entry): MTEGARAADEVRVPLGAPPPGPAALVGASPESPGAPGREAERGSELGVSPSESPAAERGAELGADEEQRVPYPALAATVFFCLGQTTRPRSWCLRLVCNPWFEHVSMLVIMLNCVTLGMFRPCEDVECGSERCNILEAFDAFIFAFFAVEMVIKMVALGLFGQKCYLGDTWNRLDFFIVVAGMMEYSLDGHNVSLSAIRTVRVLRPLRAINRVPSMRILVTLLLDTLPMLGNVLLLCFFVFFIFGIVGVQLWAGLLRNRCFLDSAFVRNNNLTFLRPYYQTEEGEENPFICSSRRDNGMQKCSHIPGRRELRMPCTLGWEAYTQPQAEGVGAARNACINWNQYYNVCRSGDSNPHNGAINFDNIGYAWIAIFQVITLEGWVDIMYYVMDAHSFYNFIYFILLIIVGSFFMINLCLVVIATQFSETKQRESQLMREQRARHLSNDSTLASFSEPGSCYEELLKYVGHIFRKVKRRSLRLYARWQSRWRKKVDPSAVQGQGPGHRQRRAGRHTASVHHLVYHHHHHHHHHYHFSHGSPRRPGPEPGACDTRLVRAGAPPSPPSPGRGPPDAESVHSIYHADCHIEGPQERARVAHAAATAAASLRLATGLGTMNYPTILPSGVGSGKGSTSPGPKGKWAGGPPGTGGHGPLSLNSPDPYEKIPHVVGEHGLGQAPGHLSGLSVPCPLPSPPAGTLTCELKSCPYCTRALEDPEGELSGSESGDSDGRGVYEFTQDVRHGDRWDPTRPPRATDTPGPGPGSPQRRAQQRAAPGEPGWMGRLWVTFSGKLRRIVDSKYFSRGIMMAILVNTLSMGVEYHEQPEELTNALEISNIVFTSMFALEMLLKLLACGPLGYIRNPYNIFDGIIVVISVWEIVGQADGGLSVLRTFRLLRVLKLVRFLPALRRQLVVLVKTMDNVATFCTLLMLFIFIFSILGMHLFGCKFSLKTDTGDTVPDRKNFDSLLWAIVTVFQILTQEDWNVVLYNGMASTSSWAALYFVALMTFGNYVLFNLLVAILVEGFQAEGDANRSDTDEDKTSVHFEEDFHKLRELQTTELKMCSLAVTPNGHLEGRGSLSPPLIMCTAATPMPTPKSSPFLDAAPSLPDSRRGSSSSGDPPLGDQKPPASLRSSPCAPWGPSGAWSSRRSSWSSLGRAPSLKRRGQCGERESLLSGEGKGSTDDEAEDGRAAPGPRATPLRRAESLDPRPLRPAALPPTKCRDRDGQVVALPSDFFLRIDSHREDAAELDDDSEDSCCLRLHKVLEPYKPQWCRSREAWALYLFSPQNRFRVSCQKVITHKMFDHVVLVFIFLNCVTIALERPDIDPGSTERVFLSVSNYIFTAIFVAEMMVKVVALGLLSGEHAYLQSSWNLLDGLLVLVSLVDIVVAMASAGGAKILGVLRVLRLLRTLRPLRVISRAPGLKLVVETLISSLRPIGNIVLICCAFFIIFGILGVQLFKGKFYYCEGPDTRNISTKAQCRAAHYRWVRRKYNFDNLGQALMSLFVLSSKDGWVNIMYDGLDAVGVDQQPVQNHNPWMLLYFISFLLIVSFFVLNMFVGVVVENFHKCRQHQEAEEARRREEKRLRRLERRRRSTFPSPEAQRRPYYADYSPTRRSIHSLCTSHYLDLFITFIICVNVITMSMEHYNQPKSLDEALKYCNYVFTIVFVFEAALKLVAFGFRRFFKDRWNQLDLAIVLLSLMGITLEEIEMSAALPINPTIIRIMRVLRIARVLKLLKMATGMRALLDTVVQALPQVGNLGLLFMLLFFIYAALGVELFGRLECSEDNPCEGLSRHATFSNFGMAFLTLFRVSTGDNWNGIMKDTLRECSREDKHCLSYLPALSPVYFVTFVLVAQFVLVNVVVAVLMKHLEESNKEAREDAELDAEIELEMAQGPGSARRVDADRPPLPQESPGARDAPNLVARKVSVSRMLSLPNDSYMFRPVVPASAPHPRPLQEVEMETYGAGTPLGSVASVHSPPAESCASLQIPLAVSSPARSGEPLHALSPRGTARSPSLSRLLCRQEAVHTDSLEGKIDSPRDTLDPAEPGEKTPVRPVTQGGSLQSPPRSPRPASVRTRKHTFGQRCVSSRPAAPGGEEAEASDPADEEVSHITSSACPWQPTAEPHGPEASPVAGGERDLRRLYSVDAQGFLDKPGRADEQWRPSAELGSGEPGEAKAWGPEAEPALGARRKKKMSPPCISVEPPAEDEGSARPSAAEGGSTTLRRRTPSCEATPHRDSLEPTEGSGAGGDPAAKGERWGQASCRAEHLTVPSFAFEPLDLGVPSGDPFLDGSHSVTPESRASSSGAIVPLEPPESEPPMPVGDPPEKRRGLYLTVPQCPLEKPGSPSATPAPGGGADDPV

Structure (SMILES): COc1cccc(N=C2SC(C(=O)Nc3ccc(F)cc3)CC(=O)N2C)c1 (stereo not given)
IC50 [6]: > 100 µM (inactive) | IC50 [7]: > 100 µM (inactive)

Structure (SMILES): Cc1cc(C(=O)NN=Cc2ccc(OC(=O)c3ccco3)cc2)c(C)o1
IC50 [8]: > 150 µM (active)

Structure (SMILES): O=C(O)C1CCC(Cn2c(SCc3cc(=O)n4cc(Cl)ccc4n3)nc3ccsc3c2=O)CC1 (stereo not given)
EC50 (Integrin alpha-L): 51.9 µM (inactive) | EC50 (T-cell): 18.2 µM (active)

Other lines, results leading:

IC50 [1]: 2.06 µM (active) | EC50 [2]: 8.41 µM (active)
Structure (SMILES): O=C(CSc1nc2ccccc2o1)Nc1ccccc1N1CCCCCC1

IC50 [3]: 816 nM (active)
Structure (SMILES): CNC(=O)Nc1ccc2nc(-c3ccco3)c(-c3ccco3)nc2c1

IC50 [4]: > 20 µM (not active) | IC50 [5]: > 20 µM (inactive)
Structure (SMILES): CS(=O)(=O)/C(=C/c1cccn1S(=O)(=O)c1ccccc1)CN
